From PubChem BioAssay (NCI)
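Growth conditions: 96-well plates. Treatment: test compound, 48 hours, 5 concentrations. Analysis: linear interpolation between bracketing concentrations; unreached endpoints set to highest concentration. TGI is the concentration that stops growth completely.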

How the values were obtained:
Test in all cases: inhibition of tumour cell growth, NCI panel, 48 h
HCT-116 colon = system: HCT-116 colon
PC-3 prostate = system: PC-3 prostate
OVCAR-4 ovarian = system: OVCAR-4 ovarian
SK-MEL-2 melanoma = system: SK-MEL-2 melanoma
SNB-75 CNS = system: SNB-75 CNS
SR leukemia = system: SR leukemia
RXF 393 renal = system: RXF 393 renal
MOLT-4 leukemia = system: MOLT-4 leukemia
SW-620 colon = system: SW-620 colon
MCF7 breast = system: MCF7 breast
NCI-H522 lung = system: NCI-H522 lung
EKVX NSCLC = system: EKVX NSCLC
SNB-19 CNS = system: SNB-19 CNS
NCI-H23 lung = system: NCI-H23 lung
UACC-257 melanoma = system: UACC-257 melanoma
NCI/ADR-RES ovarian = system: NCI/ADR-RES ovarian
RPMI-8226 leukemia = system: RPMI-8226 leukemia
SN12C renal = system: SN12C renal
HCT-15 colon = system: HCT-15 colon
UO-31 renal = system: UO-31 renal
CAKI-1 renal = system: CAKI-1 renal
M14 melanoma = system: M14 melanoma
NCI-H226 lung = system: NCI-H226 lung
MALME-3M melanoma = system: MALME-3M melanoma
SK-MEL-5 melanoma = system: SK-MEL-5 melanoma
OVCAR-5 ovarian = system: OVCAR-5 ovarian
MDA-MB-231 breast = system: MDA-MB-231 breast
UACC-62 melanoma = system: UACC-62 melanoma
A498 renal = system: A498 renal
SF-268 CNS = system: SF-268 CNS
A549 NSCLC = system: A549 NSCLC
OVCAR-8 ovarian = system: OVCAR-8 ovarian
HCC-2998 colon = system: HCC-2998 colon
KM12 colon = system: KM12 colon
NCI-H460 lung = system: NCI-H460 lung
HS 578T breast = system: HS 578T breast
SF-539 CNS = system: SF-539 CNS
HOP-92 NSCLC = system: HOP-92 NSCLC
T-47D breast = system: T-47D breast
IGROV1 ovarian = system: IGROV1 ovarian
TK-10 renal = system: TK-10 renal
SK-OV-3 ovarian = system: SK-OV-3 ovarian
786-0 renal = system: 786-0 renal
COLO 205 colon = system: COLO 205 colon
U251 CNS = system: U251 CNS
MDA-N = system: MDA-N
MDA-MB-435 = system: MDA-MB-435
HT29 colon = system: HT29 colon
ACHN renal = system: ACHN renal
DU-145 prostate = system: DU-145 prostate
SK-MEL-28 melanoma = system: SK-MEL-28 melanoma
SF-295 CNS = system: SF-295 CNS
LOX IMVI melanoma = system: LOX IMVI melanoma
OVCAR-3 ovarian = system: OVCAR-3 ovarian
HOP-62 NSCLC = system: HOP-62 NSCLC

## O=C(NC/C(Cl)=C/Cl)Nc1c2ccccc2nc2ccccc12
HCT-116 colon
  TGI: > 100 µM
PC-3 prostate
  TGI: > 100 µM
OVCAR-4 ovarian
  TGI: > 100 µM
SK-MEL-2 melanoma
  TGI: > 100 µM
SNB-75 CNS
  TGI: > 100 µM
SR leukemia
  TGI: > 100 µM
RXF 393 renal
  TGI: > 100 µM
MOLT-4 leukemia
  TGI: > 100 µM
SW-620 colon
  TGI: > 100 µM
MCF7 breast
  TGI: > 100 µM
NCI-H522 lung
  TGI: > 100 µM
EKVX NSCLC
  TGI: > 100 µM
SNB-19 CNS
  TGI: > 100 µM
NCI-H23 lung
  TGI: > 100 µM
UACC-257 melanoma
  TGI: > 100 µM
NCI/ADR-RES ovarian
  TGI: > 100 µM
RPMI-8226 leukemia
  TGI: > 100 µM
SN12C renal
  TGI: > 100 µM
HCT-15 colon
  TGI: > 100 µM
UO-31 renal
  TGI: > 100 µM
CAKI-1 renal
  TGI: > 100 µM
M14 melanoma
  TGI: > 100 µM
NCI-H226 lung
  TGI: > 100 µM
MALME-3M melanoma
  TGI: > 100 µM
SK-MEL-5 melanoma
  TGI: > 100 µM
OVCAR-5 ovarian
  TGI: > 100 µM
MDA-MB-231 breast
  TGI: 80.1 µM
UACC-62 melanoma
  TGI: > 100 µM
A498 renal
  TGI: > 100 µM
SF-268 CNS
  TGI: > 100 µM
A549 NSCLC
  TGI: > 100 µM
OVCAR-8 ovarian
  TGI: > 100 µM
HCC-2998 colon
  TGI: > 100 µM
KM12 colon
  TGI: > 100 µM
NCI-H460 lung
  TGI: > 100 µM
HS 578T breast
  TGI: > 100 µM
SF-539 CNS
  TGI: 93.2 µM
HOP-92 NSCLC
  TGI: > 100 µM
T-47D breast
  TGI: > 100 µM
IGROV1 ovarian
  TGI: > 100 µM
TK-10 renal
  TGI: > 100 µM
SK-OV-3 ovarian
  TGI: > 100 µM
786-0 renal
  TGI: > 100 µM
COLO 205 colon
  TGI: > 100 µM
U251 CNS
  TGI: > 100 µM
MDA-N
  TGI: > 100 µM
MDA-MB-435
  TGI: > 100 µM
HT29 colon
  TGI: > 100 µM
ACHN renal
  TGI: > 100 µM
DU-145 prostate
  TGI: > 100 µM
SK-MEL-28 melanoma
  TGI: > 100 µM
SF-295 CNS
  TGI: > 100 µM
LOX IMVI melanoma
  TGI: > 100 µM
OVCAR-3 ovarian
  TGI: > 100 µM
HOP-62 NSCLC
  TGI: > 100 µM
